Source: USRE47689E1, “Compounds for treating spinal muscular atrophy” (PTC Therapeutics, Inc., priority 2011, dated 2019)
Like-named read-outs stand apart in the source and are kept apart here.

Columns and labels:
Smn protein = Smn protein assay in cultured cells (SMN HTRF); format: cell-based, human; conditions: for EC1.5x (concentration giving 1.5-fold Smn protein increase): read-out: EC1.5x for Smn protein expression
Procedure, shortened: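 Lysates in RIPA with protease inhibitors are incubated overnight at room temperature with HTRF anti-SMN antibodies. EC1.5x is derived from fold increase in ΔF over vehicle.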

[1] = test system: SMN2 minigene (full length SMN2 minigene mRNA containing SMN2 exon 7); test: SMN2 minigene mRNA splicing RT-qPCR assay in cultured cells; format: cell-based, human; conditions: Homo sapiens, HEK293-H, read-out: EC1.5x for production of full length SMN2 mRNA
Procedure, shortened: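 Read-out: full-length (exon 7-included) SMN2 minigene mRNA by multiplex RT-qPCR with GAPDH, efficiency-corrected (1+E)^−Ct, GAPDH-normalized and divided by vehicle. Stably transfected HEK293H cells, 24 h compound exposure, duplicates per concentration. Value is EC1.5x, reported as star ranges.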

[2] = SMA Type 1 patient fibroblast cells (GM03813), 48 hours, 7-point concentration curve, SMN HTRF, concentration producing 1.5 times Smn protein vs DMSO vehicle control
[3] = SMA patient fibroblast cells, 48 hours, 7-point concentration data, fold increase relative to vehicle control (SMN HTRF)
[4] = HEK293H cells stably transfected with SMN2-A minigene, 24 hours, 7-point concentration curve, 1.5-fold relative to vehicle-treated cells

| melting point | Structure (SMILES) | EC1.5x (concentration giving 1.5-fold Smn protein increase) (Smn protein; [2]) [nM] | maximum fold (Fold) increase of Smn protein (Smn protein; [3]) | EC (1.5-fold) [1, 4] [µM] | EC (1.5-fold) ([1]; 24 h) [µM] | maximum fold (Fold) increase of Smn protein (Smn protein) | EC1.5x (concentration giving 1.5-fold Smn protein increase) (Smn protein) [nM] |
| --- | --- | --- | --- | --- | --- | --- | --- |
| 225 to 227 °C | Cc1cn2cc(-c3cc4ccc(N5C[C@@H]6C[C@H]5CN6)cc4oc3=O)nc2cn1 [Compound 623, 7-[(1S,4S)-2,5-diazabicyclo[2.2.1]hept-2-yl]-3-(6-methylimidazo[1,2-a]pyrazin-2-yl)-2H-chromen-2-one] | 300 to 1000 | *** (fold increase between >1.35 and ≤1.5) | < 0.1 | – | – | – |
| 170 to 172 °C | CCOc1cccc(-c2cc3ccc(N4CCN(C)CC4)cc3oc2=O)n1 [Compound 381, 3-(6-ethoxypyridin-2-yl)-7-(4-methylpiperazin-1-yl)-2H-chromen-2-one] | – | * (maximum fold increase of ≤1.2) | 1 to 3 | – | – | – |
| 215 to 221 °C | CCN1CCC[C@@H]2CN(c3ccc4cc(-c5cn6cc(C)nc(C)c6n5)c(=O)oc4c3)C[C@@H]21 [Compound 786, 3-(6,8-dimethylimidazo[1,2-a]pyrazin-2-yl)-7-[(4aR,7aR)-1-ethyloctahydro-6H-pyrrolo[3,4-b]pyridin-6-yl]-2H-chromen-2-one] | < 300 | **** (fold increase between >1.5 and ≤1.65) | < 0.1 | – | – | – |
| 220 to 226 °C | Cn1cc2cc(-c3cc4ccc(C5CCN(CCO)CC5)cc4oc3=O)ccc2n1 [Compound 861, 7-[1-(2-hydroxyethyl)piperidin-4-yl]-3-(2-methyl-2H-indazol-5-yl)-2H-chromen-2-one] | 300 to 1000 | ***** (fold increase >1.65) | < 0.1 | – | – | – |
| 178 to 180 °C | CCN1CCN(c2ccc3cc(-c4cn5c(C)csc5n4)c(=O)oc3c2)CC1 [Compound 178, 7-(4-ethylpiperazin-1-yl)-3-(3-methylimidazo[2,1-b][1,3]thiazol-6-yl)-2H-chromen-2-one] | – | * (maximum fold increase of ≤1.2) | 3 to 30 | – | – | – |
| 178 to 181 °C | Cc1cn2cc(-c3cc4ccc(N5CCN[C@H](C)C5)cc4oc3=O)nc2s1 [Compound 231, 3-(2-methylimidazo[2,1-b][1,3]thiazol-6-yl)-7-[(3R)-3-methylpiperazin-1-yl]-2H-chromen-2-one] | 3000 to 10000 | ** (fold increase between >1.2 and ≤1.35) | 0.3 to 1 | – | – | – |
| 223 to 233 °C | Cc1cn2cc(-c3cc4ccc(N[C@H]5CCN(C)C5)cc4oc3=O)nc2c(C)n1 [Compound 657, 3-(6,8-dimethylimidazo[1,2-a]pyrazin-2-yl)-7-{[(3S)-1-methylpyrrolidin-3-yl]amino}-2H-chromen-2-one] | < 300 | **** (fold increase between >1.5 and ≤1.65) | < 0.1 | – | – | – |
| 231 to 236 °C | CCc1cn2cc(-c3cc4ccc(N5CCNCC5)cc4oc3=O)nc2s1 [Compound 428, 3-(2-ethylimidazo[2,1-b][1,3]thiazol-6-yl)-7-(piperazin-1-yl)-2H-chromen-2-one] | – | * (maximum fold increase of ≤1.2) | 1 to 3 | – | – | – |
| 184 to 190 °C | Cc1csc(-c2cc3ccc(N4C[C@@H](C)NC[C@@H]4C)cc3oc2=O)n1 [Compound 299, 7-[(2S,5R)-2,5-dimethylpiperazin-1-yl]-3-(4-methyl-1,3-thiazol-2-yl)-2H-chromen-2-one] | – | * (maximum fold increase of ≤1.2) | 1 to 3 | – | – | – |
| 291 °C (dec.) | CN1CCN(c2ccc3cc(-c4cn5cc(C#N)ccc5n4)c(=O)oc3c2)CC1 [Compound 208, 2-[7-(4-methylpiperazin-1-yl)-2-oxo-2H-chromen-3-yl]imidazo[1,2-a]pyridine-6-carbonitrile] | – | * (maximum fold increase of ≤1.2) | 1 to 3 | – | – | – |
| 141 to 143 °C | C[C@H]1CN(c2ccc3cc(-c4cccc(C(F)(F)F)c4)c(=O)oc3c2)CCN1 [Compound 490, 7-[(3S)-3-methylpiperazin-1-yl]-3-[3-(trifluoromethyl)phenyl]-2H-chromen-2-one] | – | * (maximum fold increase of ≤1.2) | 1 to 3 | – | – | – |
| 225 to 230 °C | O=c1oc2cc(N3CCNCC3)cc(F)c2cc1-c1nc2c(F)cccc2o1 [Compound 292, 5-fluoro-3-(4-fluoro-1,3-benzoxazol-2-yl)-7-(piperazin-1-yl)-2H-chromen-2-one] | – | *** (fold increase between >1.35 and ≤1.5) | 0.3 to 1 | – | – | – |
| 179 to 183 °C | Cc1ccc2oc(-c3cc4ccc(N5C[C@@H](C)N[C@@H](C)C5)cc4oc3=O)cc2n1 [Compound 720, 7-[(3R,5S)-3,5-dimethylpiperazin-1-yl]-3-(5-methylfuro[3,2-b]pyridin-2-yl)-2H-chromen-2-one] | – | ** (fold increase between >1.2 and ≤1.35) | 0.3 to 1 | – | – | – |
| 251 to 256 °C | Cc1cn2cc(-c3cc4ccc(N5CCC(NC(CO)CO)CC5)cc4oc3=O)nc2c(C)n1 [Compound 929, 7-{4-[(1,3-dihydroxypropan-2-yl)amino]piperidin-1-yl}-3-(6,8-dimethylimidazo[1,2-a]pyrazin-2-yl)-2H-chromen-2-one] | 1000 to 3000 | *** (fold increase between >1.35 and ≤1.5) | < 0.1 | – | – | – |
| 250 to 255 °C | Cc1cc(F)c2nc(-c3cc4ccc(N5CCN[C@@H](C)C5)cc4oc3=O)cn2c1 [Cpd 421, 3-(8-fluoro-6-methylimidazo[1,2-a]pyridin-2-yl)-7-[(3S)-3-methylpiperazin-1-yl]-2H-chromen-2-one] | < 300 | *** (fold increase between >1.35 and ≤1.5) | < 0.1 | – | – | – |
| 156 to 159 °C | Cc1ccn2cc(-c3cc4ccc(NCCN(C)C)cc4oc3=O)nc2c1 [Compound 470, 7-{[2-(dimethylamino)ethyl]amino}-3-(7-methylimidazo[1,2-a]pyridin-2-yl)-2H-chromen-2-one] | – | * (maximum fold increase of ≤1.2) | 1 to 3 | – | – | – |

| Structure (SMILES) | melting point | EC1.5x (concentration giving 1.5-fold Smn protein increase) (Smn protein; [2]) [nM] | maximum fold (Fold) increase of Smn protein (Smn protein; [3]) | EC (1.5-fold) [1, 4] [µM] | EC (1.5-fold) ([1]; 24 h) [µM] | maximum fold (Fold) increase of Smn protein (Smn protein) | EC1.5x (concentration giving 1.5-fold Smn protein increase) (Smn protein) [nM] |
| --- | --- | --- | --- | --- | --- | --- | --- |
| O=c1oc2cc(N3CCNCC3)ccc2cc1-c1ccn[nH]1 [Cpd 29, 7-(piperazin-1-yl)-3-(1H-pyrazol-5-yl)-2H-chromen-2-one] | 224 to 228 °C | – | ** (fold increase between >1.2 and ≤1.35) | – | 3 to 30 | – | – |
| O=c1oc2cc(N3CCNCC3)cc(F)c2cc1-c1ccccn1 [Compound 161, 5-fluoro-7-(piperazin-1-yl)-3-(pyridin-2-yl)-2H-chromen-2-one] | 221 to 225 °C | – | – | – | 1 to 3 | *** (key: *: maximum fold increase of ≤1.2; **: fold increase between >1.2 and ≤1.35; ***: fold increase between >1.35 and ≤1.5; ****: fold increase between >1.5 and ≤1.65; *****: fold increase >1.65) | 3000 to 10000 |
